Key:
[1] = test system: human monocytes; assay: Stimulation of monocyte cells: Interleukine-1 (IL-1) test on culture supernatants; type: cell-based; settings: for direct effect on human monocytes, production of an IL-1 activity in the culture supernatants: with 5 g of product
Protocol: (§1) The mononucleus cells of the circulating blood of normal donors were separated according to the standard technique described by Boyum using a Ficoll gradient. After washing, the mononuclear cells were incubated at 37° C. for one hour at the rate of 5.10^6 monocytes (NSE^+ cells) per ml of culture medium using 5 ml per culture flask. The culture medium used in this experiment was made up of RPMI 1640 with the addition of antibiotics and Hepes buffer. After one hour, the non-adherent cells were removed by washing the flasks with medium previously heated to 37° C. and the adherent cells composed mostly of monocytes (>90%) were put back in culture in complete RPMI medium without serum in the presence of various quantities of products under test, which had previously been put in solution in a buffer (Dulbecco) without Ca^2+ or Mg^2+. The culture was continued for 24 or 48 hours and the supernatants of the cells were then removed, centrifuged, separated into equal lots and held either at -80° C. or at -20° C. The supernatants of the culture were replaced in the flasks by the same amount of apyrogenous distilled water to dissolve the cells. The lysate was recovered, separated into equal lots and also kept at -20° C.
This test was described for the first time by Gery et al in 1972 [Gery et al 1972. Potentiation of the T lymphocyte response to mitogens. II. The cellular source of potentiating mediator (s) J. Exp. Med., 136-143]. It is based on the co-mitogen action of IL-1 in the presence of an antigen (mimicked by phytohemaglutinine in the test) on the thymocytes of mice. 1.5×10^6 thymocytes of mice C3H/HeJ (from the C.S.E.A.L. of Orleans) were put in culture for three days in the presence of various dilutions of supernatants and of cell lysates which may contain IL-1 activity and of PHA-P Wellcome (1 ug/ml) in culture plates with 96 flat bottomed wells, in a final volume of 200 ul of medium composed of RPMI 1640 containing in addition to antibiotics (penicillin 1 U/ml - streptomycin 1000 U/ml) of Hepes buffer, 1 mM of glutamine, 2 mM 5% of calf serum and […] of 2-mercapto ethanol. After 68 hours of culture, 1 μCi of tritiated thymidine was added to each well (^3 H-methyl thymidine, CEA Saclay, TMM79A specific activity 1 Ci/mM=37 GBq/mM) and the radioactivity incorporated by the cells was evaluated after the cultures had been filtered on Skatron type semi-automatic collecting apparatus and the filters had been counted in a liquid scintillation counter (Beckman). The results were expressed by the difference between the impulses per minute incorporated by the cultures in the presence of supernatants and the impulses per minute incorporated by the control cultures.

[2] = test system: human monocytes; assay: Stimulation of monocyte cells: Tumor Necrosis Factor (TNF) test on culture supernatants; type: cell-based; settings: for direct effect on human monocytes, production of a TNF activity in the culture supernatants: with 5 g of product
Protocol: as §1
The TNF activity is shown by the toxicity of this factor on the L-929 target cells (sub-clone alpha) and the technique was sensitized by adding D actinomycin in the test. The L cells were distributed at a rate of 2×10^4 cells per well of a flat-bottomed microplate in 100 μl of RPMI 1640 medium enriched with 5% of calf serum, glutamine, Hepes buffer and antibiotics. After 24 hours, various dilutions of the supernatants under test were added in a volume of 100 μl, as well as a dose of D actinomycin of 1 μg/ml. After 24 hours of culture, the quantity of undissolved cells was evaluated by coloring the plates with crystal violet and measuring the optical density of the different wells on a multiscan reader. RESULTS: The product of Example 9 stimulated the monocytes and their production of IL-1 and TNF. Furthermore, there was synergy between the products and the gamma Interferon.

[3] = test system: Salmonella typhimurium MZ11; assay: Antibacterial activity in vitro, agar diffusion in Davis Mingioli medium; type: cell-based; settings: Salmonella enterica, product at 25 mg/l, 24 hours at 37° C., read-out: inhibition zones observed (diameter in mm)
Protocol: (§2) The antibacterial activity of the products was determined by the method of diffusion in a Davis Mingioli medium with 1% of agar added to it. The agars used were poured into Petri dishes at 48° C., after inoculating with […] with the bacterial strain under test. The inocula came from a culture made 24 hours earlier in a Davis Mingioli broth. After the agars had hardened, the aqueous solutions of the products being studied were introduced into wells (9 mm) hollowed in the medium with a punch. The inhibition zones observed (diameter in mm) were measured after incubation for 24 hours at 37° C.

[4] = test system: Escherichia Coli 078; assay: as above; type: cell-based; settings: COLI078, product at 25 mg/l, 24 hours at 37° C., read-out: inhibition zones observed (diameter in mm)
Protocol: as §2

[5] = test system: Providencia sp. DU48; assay: as above; type: cell-based; settings: product at 25 mg/l, 24 hours at 37° C., read-out: inhibition zones observed (diameter in mm)
Protocol: as §2

[6] = test system: Strain IP 52 145; assay: Antibacterial activity in vivo, protection of infected mice; set-up: species or system Swiss female mice; settings: 5 mg/kg intramuscular 24 hours before intravenous infection with strain IP 52 145
Protocol: Swiss female mice weighing from 18 to 20 g (Charles River Cobs noninbred CDl) were used for this experiment with each group comprising 20 animals. The various products were put in solution in apyrogenous physiological serum to obtain concentrations of 1-10-100 mcg/mouse or: 50-500-5000 mcg/kg.
The lyophilized strain was re-hydrated with a few drops of soja trypcase broth (BioMerieux) and a tube of 10 ml of soja trypcase broth was inoculated with the suspension obtained and cultivated for 18 hours in an incubator at 37° C. Tubes of preserving agar (Pasteur) were inoculated with this culture by central stabing. After 18 hours of culture in an incubator at 37° C., the tubes were kept at 22° C.
A tube of soja trypcase broth was inoculated from a preserving agar and cultivated for 18 hours in an incubator at 37° C. Inclined soja trypcase agars were inoculated from this culture. […] The germ concentration was evaluated by counting with a Coulter Counter. […] The quantity of revivable germs injected was checked by spreading on Petri dishes containing trypcase agar.
Administration was done with an intramuscular injection in a volume of 0.05 ml/mouse 24 hours before infection. […] Where a clear increase in survival could not be detected after 21 days of observation, an average survival time (AST) was calculated for each group. […]

[7] = test system: Enterobacter cloacae 1321E; assay: Antibacterial activity in vitro, agar diffusion in Davis Mingioli medium; type: cell-based; settings: product at 25 mg/l, 24 hours at 37° C., read-out: inhibition zones observed (diameter in mm)
Protocol: as §2

[8] = human blood monocytes, culture 24 or 48 hours
[9] = in the presence of gamma Interferon (10^3 U/ml; CHU--IFN--g)

Structure (SMILES): NCCCC[C@H](N)C(=O)NC(CC=CCC(=O)O)C(=O)O (stereo partly drawn) [Example 9, 6-(L-lysylamino)-3-heptenedioic acid]
- stimulation of the monocytes and their production of IL-1 [1, 8]: stimulated
- production of monokines (IL-1) in the presence of gamma Interferon [1, 9]: at least increased the production
- direct effect on human monocytes, production of an IL-1 activity in the culture supernatants [1]: showed a direct effect
- stimulation of the monocytes and their production of TNF [2, 8]: stimulated
- production of monokines (TNF) in the presence of gamma Interferon [2, 9]: at least increased the production
- direct effect on human monocytes, production of a TNF activity in the culture supernatants [2]: showed a direct effect

Structure (SMILES): C[C@H](N)C(=O)NC(C=CCCC(=O)O)C(=O)O (stereo partly drawn) [Example 13, 2-(L-alanylamino)-3-heptenedioic acid]
- zone of inhibition at 25 µg/mL [3]: 20 mm
- zone of inhibition at 25 µg/mL [4]: 17.5 mm
- zone of inhibition at 25 µg/mL [5]: 22 mm

Structure (SMILES): CCCCCCCCCCCCCCCCCC(=O)N[C@@H](C)C(=O)N[C@H](CCC(=O)NC(CC=CCC(=O)[O-])C(=O)[O-])C(=O)O.[Na+].[Na+] (some centres unmarked) [Example 8]
- protection, expressed in AST (average survival time) or in survival at the end of 21 days of observation [6]: particularly significant protection

Structure (SMILES): C[C@H](N)C(=O)NC(CC=CCC(=O)O)C(=O)O (stereo partly drawn) [Example 6, 6-(L-alanylamino)-3-heptenedioic acid]
- zone of inhibition at 25 µg/mL [3]: 24 mm
- zone of inhibition at 25 µg/mL [7]: 10 mm

Structure (SMILES): NC(CC=CCC(=O)O)C(=O)O (centres unmarked) [Example 5, 6-amino-3-heptenedioic acid]
- direct effect on human monocytes, production of an IL-1 activity in the culture supernatants [1]: showed a direct effect
- direct effect on human monocytes, production of a TNF activity in the culture supernatants [2]: showed a direct effect
